Measured values reported in ChEMBL document CHEMBL1151324, “Cytotoxic geranyl stilbenes from Macaranga schweinfurthii” (J Nat Prod, 1998).
Converted amounts (≈) assume the structure as drawn.

How the values were obtained:
[1] = tested on: KM12; experiment: Cytotoxicity against human KM12 cells; format: functional; conditions: for TGI: read-out: pTGI (converted)
[2] = tested on: TK-10; experiment: Cytotoxicity against human TK10 cells; format: functional; conditions: for TGI: read-out: pTGI (converted)
[3] = tested on: CCRF-CEM; experiment: Cytotoxicity against human CCRF-CEM cells; format: functional; conditions: for TGI: read-out: pTGI (converted)
[4] = tested on: OVCAR-3; experiment: Cytotoxicity against human OVCAR-3 cells; format: functional; conditions: for TGI: read-out: pTGI (converted)
[5] = tested on: SN12C; experiment: Cytotoxicity against human SN12C cells; format: functional; conditions: for TGI: read-out: pTGI (converted)
[6] = tested on: IGROV-1; experiment: Cytotoxicity against human IGROV1 cells; format: functional; conditions: for TGI: read-out: pTGI (converted)
[7] = tested on: LOX IMVI; experiment: Cytotoxicity against human LOXIMVI cells; format: functional; conditions: for TGI: read-out: pTGI (converted)
[8] = tested on: NCI-H23; experiment: Cytotoxicity against human NCI-H23 cells; format: functional; conditions: for TGI: read-out: pTGI (converted)
[9] = tested on: A549; experiment: Cytotoxicity against human A549 cells after 48 hrs; format: functional, cell-based; conditions: A549, 48 h
[10] = tested on: OVCAR-8; experiment: Cytotoxicity against human OVCAR8 cells; format: functional; conditions: for TGI: read-out: pTGI (converted)
[11] = tested on: MDA-N; experiment: Cytotoxicity against human MDA-N cells; format: functional; conditions: for CC50: read-out: pLC50 (the source's name) (converted); for TGI: read-out: pTGI (converted)
[12] = tested on: A549; experiment: Cytotoxicity against human A549 cells; format: functional; conditions: for TGI: read-out: pTGI (converted)
[13] = tested on: HCC 2998; experiment: Cytotoxicity against human HCC2998 cells; format: functional; conditions: for TGI: read-out: pTGI (converted)
[14] = tested on: UACC-62; experiment: Cytotoxicity against human UACC62 cells; format: functional; conditions: for TGI: read-out: pTGI (converted)
[15] = tested on: A498; experiment: Cytotoxicity against human A498 cells; format: functional; conditions: for TGI: read-out: pTGI (converted)
[16] = tested on: MDA-MB-231; experiment: Cytotoxicity against human MDA-MB-231 cells; format: functional; conditions: for CC50: read-out: pLC50 (the source's name) (converted); for TGI: read-out: pTGI (converted)
[17] = tested on: K562; experiment: Cytotoxicity against human K562 cells; format: functional; conditions: for TGI: read-out: pTGI (converted)
[18] = tested on: NCI-H226; experiment: Cytotoxicity against human NCI-H226 cells; format: functional; conditions: for TGI: read-out: pTGI (converted)
[19] = tested on: HOP-92; experiment: Cytotoxicity against human HOP92 cells; format: functional; conditions: for TGI: read-out: pTGI (converted)

How did the GI50 [1] turn out when `CC(C)=CCC/C(C)=C/Cc1c(O)cc(/C=C/c2cc(O)c3c(c2)C[C@@H]2C(C)(C)[C@H](O)[C@H](O)C[C@@]2(C)O3)cc1O` [SCHWEINFURTHIN A] was run?
The GI50 was 1.51 µM.

And the LC50 [1]?
The LC50 was 30.2 µM.

And the TGI [1]?
The TGI was 14.1 µM.

What about the GI50 [2] of the same compound?
The GI50 was 2.57 µM.

What about the LC50 [2] of the same compound?
Its LC50 is 41.7 µM.

And the TGI [2]?
The TGI was 17 µM.

What about the GI50 [3] of the same compound?
The GI50 was 0.01 µM.

What about the LC50 [3] of the same compound?
The LC50 was 74.1 µM.

And the TGI [3]?
The TGI was 2.09 µM.

And the GI50 [4]?
Its GI50 is 3.09 µM.

What about the LC50 [4] of the same compound?
Its LC50 is 21.9 µM.

And the TGI [4]?
The TGI was 7.94 µM.

And the GI50 [5]?
The GI50 was 6.92 µM.

And the LC50 [5]?
Its LC50 is 61.7 µM.

What about the TGI [5] of the same compound?
The TGI was 25.1 µM.

And the GI50 [6]?
The GI50 was 1.29 µM.

And the LC50 [6]?
Its LC50 is 34.7 µM.

What about the TGI [6] of the same compound?
The TGI was 11 µM.

What about the GI50 [7] of the same compound?
Its GI50 is 0.038 µM.

What about the LC50 [7] of the same compound?
The LC50 was 38.9 µM.

And the TGI [7]?
Its TGI is 17 µM.

What about the GI50 [8] of the same compound?
Its GI50 is 3.24 µM.

What about the LC50 [8] of the same compound?
Its LC50 is 51.3 µM.

What about the TGI [8] of the same compound?
Its TGI is 18.2 µM.

What about the IC50 [9] of the same compound?
Its IC50 is 3.7 µg/mL (≈ 6.74 µM).

And the GI50 [10]?
The GI50 was 5.13 µM.

What about the LC50 [10] of the same compound?
The LC50 was 57.5 µM.

And the TGI [10]?
Its TGI is 20 µM.

And the GI50 [11]?
Its GI50 is 2.82 µM.

What about the CC50 [11] of the same compound?
Its CC50 is 61.7 µM.

And the TGI [11]?
The TGI was 25.7 µM.

What about the GI50 [12] of the same compound?
The GI50 was 0.141 µM.

And the LC50 (concentration killing 50% of cells) [12]?
The LC50 (concentration killing 50% of cells) was 40.7 µM.

And the TGI [12]?
The TGI was 14.1 µM.

What about the GI50 [13] of the same compound?
The GI50 was 0.501 µM.

What about the LC50 [13] of the same compound?
Its LC50 is 33.1 µM.

What about the TGI [13] of the same compound?
Its TGI is 9.77 µM.

And the GI50 [14]?
The GI50 was 0.11 µM.

And the LC50 [14]?
Its LC50 is 6.31 µM.

And the TGI [14]?
Its TGI is 1.82 µM.

What about the GI50 [15] of the same compound?
The GI50 was 4.17 µM.

And the LC50 [15]?
The LC50 was 61.7 µM.

What about the TGI [15] of the same compound?
The TGI was 22.9 µM.

And the GI50 [16]?
Its GI50 is 4.17 µM.

What about the CC50 [16] of the same compound?
Its CC50 is 70.8 µM.

And the TGI [16]?
Its TGI is 25.1 µM.

What about the GI50 [17] of the same compound?
The GI50 was 0.0646 µM.

And the LC50 [17]?
The LC50 was 72.4 µM.

What about the TGI [17] of the same compound?
Its TGI is 14.1 µM.

And the GI50 [18]?
Its GI50 is 4.47 µM.

What about the LC50 [18] of the same compound?
Its LC50 is 70.8 µM.

And the TGI [18]?
The TGI was 15.8 µM.

And the GI50 [19]?
The GI50 was 2.57 µM.

And the LC50 [19]?
The LC50 was 46.8 µM.

And the TGI [19]?
Its TGI is 15.1 µM.

With `COc1cc(/C=C/c2cc(O)c(C/C=C(\C)CCC=C(C)C)c(O)c2)cc2c1O[C@]1(C)C[C@@H](O)[C@@H](O)C(C)(C)[C@H]1C2` [SCHWEINFURTHIN B] as the compound, how does the GI50 [1] read?
The GI50 was 1.29 µM.

What about the LC50 [1] of the same compound?
The LC50 was 18.2 µM.

What about the TGI [1] of the same compound?
The TGI was 9.33 µM.

What about the GI50 [2] of the same compound?
The GI50 was 6.17 µM.

What about the LC50 [2] of the same compound?
Its LC50 is 52.5 µM.

What about the TGI [2] of the same compound?
The TGI was 21.9 µM.

What about the GI50 [3] of the same compound?
Its GI50 is 0.229 µM.

What about the LC50 [3] of the same compound?
Its LC50 is over 100 µM.

What about the TGI [3] of the same compound?
Its TGI is 6.31 µM.

And the GI50 [4]?
Its GI50 is 3.89 µM.

And the LC50 [4]?
Its LC50 is 42.7 µM.

And the TGI [4]?
The TGI was 12.9 µM.

And the GI50 [5]?
Its GI50 is 12 µM.

What about the LC50 [5] of the same compound?
The LC50 was 67.6 µM.

And the TGI [5]?
Its TGI is 28.8 µM.

What about the GI50 [6] of the same compound?
Its GI50 is 2.4 µM.

What about the LC50 [6] of the same compound?
Its LC50 is 42.7 µM.

And the TGI [6]?
The TGI was 18.2 µM.

What about the GI50 [7] of the same compound?
Its GI50 is 0.38 µM.

And the LC50 [7]?
The LC50 was 30.9 µM.

What about the TGI [7] of the same compound?
The TGI was 17 µM.

And the GI50 [8]?
Its GI50 is 3.24 µM.

What about the LC50 [8] of the same compound?
Its LC50 is 51.3 µM.

What about the TGI [8] of the same compound?
The TGI was 19.1 µM.

What about the IC50 [9] of the same compound?
Its IC50 is 7.1 µg/mL (≈ 12.6 µM).

And the GI50 [10]?
Its GI50 is 11 µM.

What about the LC50 [10] of the same compound?
Its LC50 is 64.6 µM.

What about the TGI [10] of the same compound?
The TGI was 26.9 µM.

And the GI50 [11]?
The GI50 was 3.39 µM.

And the CC50 [11]?
The CC50 was 28.8 µM.

And the TGI [11]?
Its TGI is 15.1 µM.

What about the GI50 [12] of the same compound?
The GI50 was 0.339 µM.

What about the LC50 (concentration killing 50% of cells) [12] of the same compound?
The LC50 (concentration killing 50% of cells) was 38.9 µM.

What about the TGI [12] of the same compound?
The TGI was 14.1 µM.

What about the GI50 [13] of the same compound?
Its GI50 is 3.63 µM.

And the LC50 [13]?
Its LC50 is 34.7 µM.

And the TGI [13]?
Its TGI is 11 µM.

What about the GI50 [14] of the same compound?
Its GI50 is 0.331 µM.

And the LC50 [14]?
Its LC50 is 10 µM.

And the TGI [14]?
Its TGI is 2.29 µM.

What about the GI50 [15] of the same compound?
The GI50 was 1.7 µM.

And the LC50 [15]?
The LC50 was 44.7 µM.

What about the TGI [15] of the same compound?
The TGI was 17 µM.

And the GI50 [16]?
The GI50 was 6.46 µM.

And the CC50 [16]?
Its CC50 is 81.3 µM.

What about the TGI [16] of the same compound?
Its TGI is 38 µM.

And the GI50 [17]?
The GI50 was 0.347 µM.

What about the LC50 [17] of the same compound?
The LC50 was 36.3 µM.

What about the TGI [17] of the same compound?
Its TGI is 6.17 µM.

What about the GI50 [18] of the same compound?
The GI50 was 2.19 µM.

What about the LC50 [18] of the same compound?
The LC50 was 77.6 µM.

What about the TGI [18] of the same compound?
Its TGI is 14.1 µM.

And the GI50 [19]?
Its GI50 is 0.933 µM.

And the LC50 [19]?
The LC50 was 41.7 µM.

What about the TGI [19] of the same compound?
The TGI was 12.9 µM.
